Experimental data taken from patent US9487515B2, “Compounds modulating c-fms and/or c-kit activity and uses therefor” (Plexxikon Inc., priority 2006, dated 2016).

Legend:
MAP4K4 (HGK) = MAP4K4 (HGK) (Homo sapiens, UniProt O95819); assay: HGK biochemical assay (AlphaScreen); conditions: 10 μM ATP
Protocol: Substrate was 10 nM biotin-ERM (T567/T564/T558, Cell Signaling, Inc., cat#1344). MAP4K4 kinase was at 0.5 ng per sample.

c-kit = c-kit (Homo sapiens, UniProt P10721); assay: c-kit assays of Examples 40 and 41 (AlphaScreen kinase assays at 10 and 100 μM ATP, 33P-ATP filter assay, M-07e SCF-stimulated proliferation and phosphorylation)
c-kit, sequence (P10721 with tags, fused parts or gaps): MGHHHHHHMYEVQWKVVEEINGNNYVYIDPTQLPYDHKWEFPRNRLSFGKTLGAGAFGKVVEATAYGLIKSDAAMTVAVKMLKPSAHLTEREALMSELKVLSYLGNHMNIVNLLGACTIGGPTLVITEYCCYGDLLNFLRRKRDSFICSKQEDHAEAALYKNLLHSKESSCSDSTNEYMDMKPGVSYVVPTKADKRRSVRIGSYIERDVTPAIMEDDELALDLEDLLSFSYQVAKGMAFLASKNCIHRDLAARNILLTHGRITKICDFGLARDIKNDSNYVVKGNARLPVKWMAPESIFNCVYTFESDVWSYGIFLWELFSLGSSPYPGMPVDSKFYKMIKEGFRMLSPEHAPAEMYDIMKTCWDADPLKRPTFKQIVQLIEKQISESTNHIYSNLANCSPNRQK

MAP4K4 (HGK), sequence (O95819 whole entry): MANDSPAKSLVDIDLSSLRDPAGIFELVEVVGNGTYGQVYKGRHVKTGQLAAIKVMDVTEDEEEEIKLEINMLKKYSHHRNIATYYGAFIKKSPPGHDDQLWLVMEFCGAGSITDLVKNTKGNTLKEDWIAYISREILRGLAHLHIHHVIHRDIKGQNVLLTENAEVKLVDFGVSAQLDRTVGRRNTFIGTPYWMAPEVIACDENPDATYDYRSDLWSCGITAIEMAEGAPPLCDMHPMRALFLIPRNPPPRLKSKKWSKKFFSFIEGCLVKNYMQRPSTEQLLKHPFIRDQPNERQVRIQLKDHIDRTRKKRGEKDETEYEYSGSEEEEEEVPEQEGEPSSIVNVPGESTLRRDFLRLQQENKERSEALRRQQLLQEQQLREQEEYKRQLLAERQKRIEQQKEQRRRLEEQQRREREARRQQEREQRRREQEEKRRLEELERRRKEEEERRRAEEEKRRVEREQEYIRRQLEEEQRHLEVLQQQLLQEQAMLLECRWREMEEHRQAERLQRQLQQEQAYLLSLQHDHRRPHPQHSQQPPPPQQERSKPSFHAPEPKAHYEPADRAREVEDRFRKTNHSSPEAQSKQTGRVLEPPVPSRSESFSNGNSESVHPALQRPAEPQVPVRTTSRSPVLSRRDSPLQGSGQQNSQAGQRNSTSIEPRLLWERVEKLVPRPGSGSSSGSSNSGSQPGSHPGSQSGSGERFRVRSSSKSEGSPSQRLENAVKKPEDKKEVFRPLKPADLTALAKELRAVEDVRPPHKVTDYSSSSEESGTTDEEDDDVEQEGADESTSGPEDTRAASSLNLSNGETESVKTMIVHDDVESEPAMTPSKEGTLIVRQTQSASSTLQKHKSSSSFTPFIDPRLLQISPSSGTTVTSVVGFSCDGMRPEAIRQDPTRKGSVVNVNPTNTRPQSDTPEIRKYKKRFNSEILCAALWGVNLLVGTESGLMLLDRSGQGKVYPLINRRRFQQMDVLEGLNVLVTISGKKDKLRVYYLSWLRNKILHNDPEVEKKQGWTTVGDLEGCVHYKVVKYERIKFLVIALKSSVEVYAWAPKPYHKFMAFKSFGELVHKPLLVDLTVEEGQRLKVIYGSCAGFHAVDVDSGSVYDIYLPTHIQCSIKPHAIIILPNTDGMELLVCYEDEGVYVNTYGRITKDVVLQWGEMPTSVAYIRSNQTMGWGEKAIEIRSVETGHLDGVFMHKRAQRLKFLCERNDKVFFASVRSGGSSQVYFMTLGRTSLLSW

| Structure (SMILES) | IC50 (MAP4K4 (HGK)) | IC50 (c-kit) |
| --- | --- | --- |
| COc1cncc(CNc2nc(Cl)c(Cc3c[nH]c4ncccc34)s2)c1 [P-0207, [4-Chloro-5-(1H-pyrrolo[2,3-b]pyridin-3-ylmethyl)-thiazol-2-yl]-(5-methoxy-pyridin-3-ylmethyl)-amine] | < 1000 nM | – |
| Fc1cncc(CNc2nc(Cl)c(Cc3c[nH]c4ncc(Cl)cc34)s2)c1 [P-0231, [4-Chloro-5-(5-chloro-1H-pyrrolo[2,3-b]pyridin-3-ylmethyl)-thiazol-2-yl]-(5-fluoro-pyridin-3-ylmethyl)-amine] | < 1000 nM | – |
| COc1cncc(CNc2nc(Cl)c(Cc3c[nH]c4ncc(Cl)cc34)s2)c1 [P-0241, [4-Chloro-5-(5-chloro-1H-pyrrolo[2,3-b]pyridin-3-ylmethyl)-thiazol-2-yl]-(5-methoxy-pyridin-3-ylmethyl)-amine] | < 1000 nM | – |
| FC(F)(F)Oc1ccccc1CNc1ncc(Cc2c[nH]c3ncc(Cl)cc23)cn1 [P-0402, [5-(5-Chloro-1H-pyrrolo[2,3-b]pyridin-3-ylmethyl)-pyrimidin-2-yl]-(2-trifluoromethoxy-benzyl)-amine] | – | < 1000 nM |
| O=C(c1ccc(NCc2ccccc2F)nc1)c1c[nH]c2ncccc12 [P-0403, [6-(2-fluoro-benzylamino)-pyridin-3-yl]-(1H-pyrrolo[2,3-b]pyridin-3-yl)-methanone] | < 1000 nM | – |
| O=C(c1ccc(NCc2ccccc2F)nc1)c1c[nH]c2ncc(Cl)cc12 [P-0404, (5-chloro-1H-pyrrolo[2,3-b]pyridin-3-yl)-[6-(2-fluoro-benzylamino)-pyridin-3-yl]-methanone] | – | < 1000 nM |
| Fc1ccc(Cl)c(CNc2ncc(Cc3c[nH]c4ncccc34)cn2)c1 [P-0407, (2-Chloro-5-fluoro-benzyl)-[5-(1H-pyrrolo[2,3-b]pyridin-3-ylmethyl)-pyrimidin-2-yl]-amine] | – | < 1000 nM |
| Fc1ccc(Cl)c(CNc2ncc(Cc3c[nH]c4ncc(Cl)cc34)cn2)c1 [P-0408, (2-Chloro-5-fluoro-benzyl)-[5-(5-chloro-1H-pyrrolo[2,3-b]pyridin-3-ylmethyl)-pyrimidin-2-yl]-amine] | – | < 1000 nM |
| FC(F)(F)COc1ccc(CNc2ccc(Cc3c[nH]c4ncc(Cl)cc34)cn2)cn1 [P-0409, [5-(5-Chloro-1H-pyrrolo[2,3-b]pyridin-3-ylmethyl)-pyridin-2-yl]-[6-(2,2,2-trifluoro-ethoxy)-pyridin-3-ylmethyl]-amine] | – | < 1000 nM |

More lines, now with the values ahead:

| IC50 (MAP4K4 (HGK)) | IC50 (c-kit) | Structure (SMILES) |
| --- | --- | --- |
| < 1000 nM | < 1000 nM | Fc1ccc(CNc2nc(Cl)c(Cc3c[nH]c4ncccc34)s2)cc1 [P-0156, [4-Chloro-5-(1H-pyrrolo[2,3-b]pyridin-3-ylmethyl)-thiazol-2-yl]-(4-fluoro-benzyl)-amine] |
| < 1000 nM | < 1000 nM | O=C(c1cnc(NCc2ccc(F)cc2)s1)c1c[nH]c2ncccc12 [P-0177, [2-(4-fluoro-benzylamino)-thiazol-5-yl]-(1H-pyrrolo[2,3-b]pyridin-3-yl)-methanone] |
| < 1000 nM | < 1000 nM | Fc1ccc(CNc2nc(Cl)c(Cc3c[nH]c4ncc(Cl)cc34)s2)cc1 [P-0195, [4-Chloro-5-(5-chloro-1H-pyrrolo[2,3-b]pyridin-3-ylmethyl)-thiazol-2-yl]-(4-fluoro-benzyl)-amine] |
| < 1000 nM | < 1000 nM | Cc1nc(CNc2nc(Cl)c(Cc3c[nH]c4ncc(Cl)cc34)s2)cs1 [P-0201, [4-Chloro-5-(5-chloro-1H-pyrrolo[2,3-b]pyridin-3-ylmethyl)-thiazol-2-yl]-(2-methyl-thiazol-4-ylmethyl)-amine] |
| – | < 1000 nM | Fc1cccc(CNc2ncc(Cc3c[nH]c4ncc(Cl)cc34)cn2)c1F [P-0395, [5-(5-Chloro-1H-pyrrolo[2,3-b]pyridin-3-ylmethyl)-pyrimidin-2-yl]-(2,3-difluoro-benzyl)-amine] |
| – | < 1000 nM | Fc1ccc(CNc2ncc(Cc3c[nH]c4ncc(Cl)cc34)cn2)c(Cl)c1 [P-0396, (2-Chloro-4-fluoro-benzyl)-[5-(5-chloro-1H-pyrrolo[2,3-b]pyridin-3-ylmethyl)-pyrimidin-2-yl]-amine] |
